Assay results from patent US20040082503A1, “Methods for treatment of diabetes using peptide analogues of insulin” (Neurocrine Biosciences, Inc., priority 1998, published 2004).
“And” between values parts separate entries of the source, which are not always exact repeats. Equal values may be shown once.

How the values were obtained:
[1] = test system: Insulin specific NOD T cell clone PD12-4.29; experiment: Proliferation of insulin-specific NOD T cell clone PD12-4.29; assay type: cell-based, mouse (NOD); conditions: 50 μg/ml peptide, 72 h, 3H-thymidine; no antigen 789 cpm
Method: (§1) Insulin specific NOD T cell lines were established by culturing lymphocytes isolated from islet-infiltrating populations by in vitro stimulation with either porcine insulin at 25 μg/ml and irradiated NOD islet cell in the presence of irradiated NOD spleen cells as antigen presenting cells and cytokines. To obtain the infiltrating lymphocytes the following procedures were performed (see Wegmann et al., Eur. J. Immunol. 24:1853, 1994): the pancreas from the NOD mouse was digested with collagenase and individual islets were isolated manually. The infiltrating lymphocytes were then obtained by mild trypsin digestion of the islets. The insulin specific T cell lines or clones were propagated by serial stimulation in the presence of NOD spleen cells, porcine insulin and lymphokines. Clones were obtained by limiting dilution of the B chain (9-23) specific T cell lines in the presence of the antigen presenting cells and porcine insulin at 25 μg/ml. Wells with a growing population of cells following limiting dilution were expanded in appropriate medium, and after one cycle of growth were tested for reactivity to the B chain (9-23) peptide of insulin by evaluating the proliferative response.
(§2) Insulin B chain (9-23) (SEQ ID NO:2) specific mouse (NOD) T cell clones were isolated from infiltrated islets as described in Example 2. Peptide analogues with single alanine substitutions were prepared as described in Example 1. The effect of each analogue on T cell proliferation was then evaluated using an assay performed in 96-well flat bottom microtiter plates (see Daniel et al., Eur. J. Immunol. 25:1056, 1995). Briefly 25,000 T cell clones along with 1 million irradiated NOD spleen cells were cultured in the presence of 50 μg/ml of insulin B chain 9-23 peptide or any of the alanine substituted peptides listed below in triplicate sets. The plates were incubated for a total of 72 hours in 7% carbon dioxide atmosphere with a pulse of 1 μCi/well of tritiated thymidine for the last 6-8 hours of culture. Cells were harvested on a glass fiber filter and the associated radioactivity was counted in a liquid scintillation counter. Results are expressed as mean counts per minute of triplicate wells.

[2] = test system: Insulin specific NOD T cell clone PD6-4.3; experiment: Proliferation of insulin-specific NOD T cell clone PD6-4.3; assay type: cell-based, mouse (NOD); conditions: 50 μg/ml peptide, 72 h, 3H-thymidine; no antigen 163 cpm
Method: as §1, §2

[3] = test system: Insulin specific NOD T cell clone PD12-4.34; experiment: Proliferation of insulin-specific NOD T cell clone PD12-4.34; assay type: cell-based, mouse (NOD); conditions: 50 μg/ml peptide, 72 h, 3H-thymidine; no antigen 231 cpm
Method: as §1, §2

[4] = test system: Murine NOD T cell clone PD12-2.40 response to insulin B chain (9-23) peptide; experiment: Antagonism of T cell proliferation assay, clone PD12-2.40; assay type: cell-based, mouse (NOD); conditions: for % Inhibition: N/A = no inhibition observed
Method: Peptide analogues of B chain (9-23) containing alanine substitutions at residue 12, 13, 15 or 16 or the doubly substituted peptide at positions 16 and 19 (A^16,19; NBI-6024) were prepared as described in Example 1. T cell antagonism was detected by evaluating the ability of the peptide analogues to inhibit T cell proliferation induced by native B chain (9-23) (SEQ ID NO:2). In this assay, antigen presenting cells were first irradiated and then incubated with the competing peptide analogue and the native B chain (9-23) peptide. T cells were then added to the culture. Various concentrations of candidate peptide analogues were included in cultures which were incubated for a total of 4 days. Following this incubation period, each culture was pulsed with 1 μCi of [^3H]-thymidine for an additional 12-18 hours. Cultures were then harvested on fiberglass filters and counted as above. Mean CPM and standard error of the mean were calculated from data determined in triplicate cultures.
Within Table 4, the control peptide, NBI-5096, is an unrelated peptide from myelin basic protein. The percent inhibition was calculated as: (1−experimental cpm/insulin peptide cpm)×100%.

[5] = test system: Insulin specific NOD T cell clone PD12-2.40; experiment: Proliferation of insulin-specific NOD T cell clone PD12-2.40; assay type: cell-based, mouse (NOD); conditions: for S.I. (Stimulation Index): clone PD12-2.40, 50 μM peptide, cpm with peptide/cpm in medium alone, Exp. 1 and 2
Method: as §1, §2
(§3) NOD T cell clones were incubated in the presence of 50 μM of either the native B chain (9-23) peptide or NBI-6024. The data in Table 3 represent the mean of triplicate sample±standard error of the mean. Within Table 3, S.I. (Stimulation Index)=proliferation (cpm) in the presence of the peptide/proliferation (cpm) in medium alone.

[6] = test system: Insulin B chain (9-23) specific mouse (NOD) T cell clones; experiment: Proliferation of insulin-specific NOD T cell clones (summary over clones); assay type: cell-based; conditions: four NOD derived T cell clones; 50 μM peptide
Method: as §1, §2, §3

[7] = test system: Insulin specific NOD T cell clone PD12-4.4; experiment: Proliferation of insulin-specific NOD T cell clone PD12-4.4; assay type: cell-based, mouse (NOD); conditions: 50 μg/ml peptide, 72 h, 3H-thymidine; no antigen 350 cpm
Method: as §1, §2

[8] = test system: Soluble NBI-6024 induced T cells (IL-2, IL-4, IL-5 production); experiment: Cytokine production by NBI-6024 induced T cells (ELISA); assay type: cell-based, NOD mouse; conditions: for Cytokine IL-2: 48 h supernatant
Method: FIG. 18 is a histogram, showing a comparison of the cytokines produced by immune cells induced by A^16,19 (NBI-6024) peptide in the presence or absence of adjuvant. Groups of NOD mice were immunized with the NBI-6024 alone or emulsified with CFA. The cytokines IL-2 and IL-4, as indicated, were measured at 25 μM of NBI-6024 and expressed as pg/mL after subtracting the background values.
To determine the type of T cells produced following soluble administration of NBI-6024, the culture supernatants from immune lymphoid cells were removed 48 hours following the initiation of culture and the levels of various cytokines measured using standard ELISA technology. […] Within Table 8, values are expressed in pg/ml as mean of triplicates±SEM.

[9] = test system: DQ8 antigens; experiment: Binding to DQ8 antigens
[10] = B(9-23) 5 μM + 10 μM competing peptide
[11] = B(9-23) 5 μM + 50 μM competing peptide
[12] = soluble NBI-6024 induced T cells cultured with NBI-6024 5 μM
[13] = soluble NBI-6024 induced T cells cultured with NBI-6024 25 μM

## Native 9-23: native peptide, residues 9-23 of human insulin B chain (SEQ ID NO:2) (SHLVEALYLVCGERG; Residues 9-23 of human insulin B chain; listed as Homo sapiens) [reference compound]
[1]
  Response (cpm) of T cell clone PD12-4.29: 14820 cpm
[2]
  Response (cpm) of T cell clone PD6-4.3: 10463 cpm
[3]
  Response (cpm) of T cell clone PD12-4.34: 3614 cpm
[4]; B(9-23) 5 μM alone, medium only 305 ± 13
  CPM ± SEM: 9,149 ± 1,062 CPM
[5]; 50 μg/ml peptide, 72 h, 3H-thymidine, no antigen 682 cpm
  Response (cpm) of T cell clone PD12-2.40: 32221 cpm
[5]; listed as Insulin B Chain (9-23)
  S.I. (Stimulation Index): 96.16 and 98.4
[6]
  Proliferative response over medium only (background): significant response
[7]
  Response (cpm) of T cell clone PD12-4.4: 10000 cpm

## NBI-6024: insulin B chain 9-23 with alanine substitutions at positions 16 and 19 (SHLVEALALVAGERG)
[4]; [10]
  CPM ± SEM: 6,379 ± 1,485 CPM
  % Inhibition: 30.0%
[4]; [11]
  CPM ± SEM: 4,305 ± 941 CPM
  % Inhibition: 52.9%
[5]
  S.I. (Stimulation Index): 1.01 and 1.16
[6]
  Proliferative response over medium only (background): little or no proliferation over medium only (background)
[8]; NBI-6024 emulsified with CFA (control)
  Cytokine production profile: did induce the expected Th1-cytokine profile (IL-2)
[8]; T cells from mice immunized with soluble NBI-6024
  Cytokine production profile: produced the Th2 cytokines, interleukin-4 (FIG. 18) and interleukin-5 (Table 8), and not the Th1-derived interleukin-2
[8]; soluble NBI-6024 induced T cells cultured with NBI-6024 1 μM, 0: 134 ± 0
  Cytokine IL-4: 684 ± 92 pg/mL
[8]; soluble NBI-6024 induced T cells cultured with NBI-6024 1 μM, 0: 1,814 ± 332
  Cytokine IL-5: 9,999 ± 503 pg/ml
[8]; soluble NBI-6024 induced T cells cultured with NBI-6024 1 μM
  Cytokine IL-2: <15 pg/mL
[8]; [12]
  Cytokine IL-4: 1,653 ± 51 pg/ml
  Cytokine IL-5: 23,496 ± 684 pg/ml
  Cytokine IL-2: <15 pg/mL
[8]; [13]
  Cytokine IL-4: 2,102 ± 85 pg/ml
  Cytokine IL-5: 28,062 ± 141 pg/ml
  Cytokine IL-2: <15 pg/mL
[9]
  Binding affinity to DQ8 antigens: binds with similar affinity
